Test results taken from patent publication US20050054708A1, “Combinations of drugs for the treatment of neoplasms” (priority 2003, published 2005).
Read-outs that look alike come from different tables or passages of the source.

Legend:
A549 cells = experiment: Anti-proliferation assay (Alamar Blue metabolism);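 also: 384-well plates, 72–80 h exposure at 37 °C, Alamar Blue fluorescence (ex 530 nm) read 3.5–5 h after dye addition, inhibition relative to mean of vehicle-only wells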
Procedure: Human non-small cells lung carcinoma cells A549 (ATCC# CCL-185), were grown at 37±0.5° C. and 5% CO2 in DMEM supplemented with 10% FBS, 2 mM glutamine, 1% penicillin, and 1% streptomycin.
Stock solutions (1000×) of each compound were prepared in DMSO and stored at −20° C. Master stock plates of 2-fold or 4-fold serial dilutions of individual compounds were prepared in 384-well plates. Combination matrices of test compounds were generated from these master stock plates by dilution into growth media described above. […] The combination matrices were used immediately and discarded.
The anti-proliferation assays were performed in 384-well plates. 6.6 μL of 10× stock solutions from the combination matrices were added to 40 μL of culture media in assay wells. The tumor cells were liberated from the culture flask using a solution of 0.25% trypsin. Cells were diluted in culture media such that 3000 or 6000 cells were delivered in 20 μL of media into each assay well. Assay plates were incubated for 72-80 hours at 37° C. ±0.5° C. with 5% CO2. Twenty microliters of 20% Alamar Blue warmed to 37° C. ±0.5° C. was added to each assay well following the incubation period. Alamar Blue metabolism was quantified by the amount of fluorescence intensity 3.5-5.0 hours after addition. Quantification, using an LJL Analyst AD reader (LJL Biosystems), was taken in the middle of the well with high attenuation, a 100 msec read time, an excitation filter at 530 nm, and an emission filter at 575 nm. For some experiments, quantification was performed using a Wallac Victor^2 reader. Measurements were taken at the top of the well with stabilized energy lamp control; a 100 msec read time, an excitation filter at 530 nm, and an emission filter at 590 nm.
The percent inhibition (% I) for each well was calculated using the following formula: % I=[(avg. untreated wells−treated well)/(avg. untreated wells)]×100 The average untreated well value (avg. untreated wells) is the arithmetic mean of 40 wells from the same assay plate treated with vehicle alone.
Inhibition of proliferation was measured by anti-proliferation assay as described below after incubation with the test compound(s) for 72 hours.

[1] = cited from earlier work

`O=c1[nH]cc(F)c(=O)[nH]1` [5-Fluorouracil, 5-fluorouracil] gave an inhibition at 0.01 µM (A549 cells; Homo sapiens, A549, read-out: Percent inhibition of Alamar Blue Metabolism, 5-fluorouracil 0.01 μM alone) of 2.9%, an inhibition at 0.1 µM (A549 cells; Homo sapiens, A549, read-out: Percent inhibition of Alamar Blue Metabolism, 5-fluorouracil 0.10 μM alone) of -0.5% and an inhibition at 0.5 µM (A549 cells; Homo sapiens, A549, read-out: Percent inhibition of Alamar Blue Metabolism, 5-fluorouracil 0.50 μM alone) of 40.6%. It also gave an inhibition at 0.75 µM (A549 cells; Homo sapiens, A549, read-out: Percent inhibition of Alamar Blue Metabolism, 5-fluorouracil 0.75 μM alone) of 64.3%, an inhibition at 1 µM (A549 cells; Homo sapiens, A549, read-out: Percent inhibition of Alamar Blue Metabolism, 5-fluorouracil 1.00 μM alone) of 75.4% and an inhibition at 1.5 µM (A549 cells; Homo sapiens, A549, read-out: Percent inhibition of Alamar Blue Metabolism, 5-fluorouracil 1.50 μM alone) of 73.6%. The inhibition at 2 µM (A549 cells; Homo sapiens, A549, read-out: Percent inhibition of Alamar Blue Metabolism, 5-fluorouracil 2.00 μM alone) was 87.2%, the inhibition at 5 µM (A549 cells; Homo sapiens, A549, read-out: Percent inhibition of Alamar Blue Metabolism, 5-fluorouracil 5.00 μM alone) was 79.8% and the inhibition at 10 µM (A549 cells; Homo sapiens, A549, read-out: Percent inhibition of Alamar Blue Metabolism, 5-fluorouracil 10.00 μM alone) was 82.4%.
`COc1cccc2c1C(=O)c1c(O)c3c(c(O)c1C2=O)C[C@@](O)(C(=O)CO)C[C@@H]3O[C@H]1C[C@H](N)[C@H](O)[C@H](C)O1` [Doxorubicin, doxorubicin] showed an inhibition at 0.0008 µM (A549 cells; Homo sapiens, A549, read-out: Percent inhibition of Alamar Blue Metabolism, doxorubicin 0.0008 μM alone) of 32%, an inhibition at 0.0016 µM (A549 cells; Homo sapiens, A549, read-out: Percent inhibition of Alamar Blue Metabolism, doxorubicin 0.0016 μM alone) of 27.5% and an inhibition at 0.0031 µM (A549 cells; Homo sapiens, A549, read-out: Percent inhibition of Alamar Blue Metabolism, doxorubicin 0.0031 μM alone) of 34.4%. It also gave an inhibition at 0.0063 µM (A549 cells; Homo sapiens, A549, read-out: Percent inhibition of Alamar Blue Metabolism, doxorubicin 0.0063 μM alone) of 40.3%, an inhibition at 0.0125 µM (A549 cells; Homo sapiens, A549, read-out: Percent inhibition of Alamar Blue Metabolism, doxorubicin 0.0125 μM alone) of 55.6% and an inhibition at 0.025 µM (A549 cells; Homo sapiens, A549, read-out: Percent inhibition of Alamar Blue Metabolism, doxorubicin 0.0250 μM alone) of 63.8%. The inhibition at 0.05 µM (A549 cells; Homo sapiens, A549, read-out: Percent inhibition of Alamar Blue Metabolism, doxorubicin 0.0500 μM alone) was 67.5%, the inhibition at 0.1 µM (A549 cells; Homo sapiens, A549, read-out: Percent inhibition of Alamar Blue Metabolism, doxorubicin 0.1000 μM alone) was 63% and the inhibition at 0.2 µM (A549 cells; Homo sapiens, A549, read-out: Percent inhibition of Alamar Blue Metabolism, doxorubicin 0.2000 μM alone) was 62.9%.
`COc1cc([C@@H]2c3cc4c(cc3[C@@H](O[C@@H]3O[C@@H]5CO[C@@H](C)O[C@H]5[C@H](O)[C@H]3O)[C@H]3COC(=O)[C@H]23)OCO4)cc(OC)c1O` [Etoposide, etoposide] gave an inhibition at 0.04 µM (A549 cells; Homo sapiens, A549, read-out: Percent inhibition of Alamar Blue Metabolism, etoposide 0.04 μM alone) of 3.9%, an inhibition at 0.08 µM (A549 cells; Homo sapiens, A549, read-out: Percent inhibition of Alamar Blue Metabolism, etoposide 0.08 μM alone) of 46.5% and an inhibition at 0.16 µM (A549 cells; Homo sapiens, A549, read-out: Percent inhibition of Alamar Blue Metabolism, etoposide 0.16 μM alone) of 38.7%. For the same molecule, the inhibition at 0.31 µM (A549 cells; Homo sapiens, A549, read-out: Percent inhibition of Alamar Blue Metabolism, etoposide 0.31 μM alone) was 42.7%, the inhibition at 0.63 µM (A549 cells; Homo sapiens, A549, read-out: Percent inhibition of Alamar Blue Metabolism, etoposide 0.63 μM alone) was 52.4% and the inhibition at 1.25 µM (A549 cells; Homo sapiens, A549, read-out: Percent inhibition of Alamar Blue Metabolism, etoposide 1.25 μM alone) was 62.8%. It also gave an inhibition at 2.5 µM (A549 cells; Homo sapiens, A549, read-out: Percent inhibition of Alamar Blue Metabolism, etoposide 2.50 μM alone) of 76.1%, an inhibition at 5 µM (A549 cells; Homo sapiens, A549, read-out: Percent inhibition of Alamar Blue Metabolism, etoposide 5.00 μM alone) of 77.5% and an inhibition at 10 µM (A549 cells; Homo sapiens, A549, read-out: Percent inhibition of Alamar Blue Metabolism, etoposide 10.00 μM alone) of 79.4%.
Work on `CC[C@]1(O)C[C@@H]2CN(CCc3c([nH]c4ccccc34)[C@@](C(=O)OC)(c3cc4c(cc3OC)N(C)[C@H]3[C@@](O)(C(=O)OC)[C@H](OC(C)=O)[C@]5(CC)C=CCN6CC[C@]43[C@@H]65)C2)C1` [Vinblastine, vinblastine] yielded an inhibition at 0.0001 µM (A549 cells; Homo sapiens, A549, read-out: Percent inhibition of Alamar Blue Metabolism, vinblastine 0.0001 μM alone) of -22.3%, an inhibition at 0.0002 µM (A549 cells; Homo sapiens, A549, read-out: Percent inhibition of Alamar Blue Metabolism, vinblastine 0.0002 μM alone) of -8.3% and an inhibition at 0.0004 µM (A549 cells; Homo sapiens, A549, read-out: Percent inhibition of Alamar Blue Metabolism, vinblastine 0.0004 μM alone) of 7.4%. The inhibition at 0.0008 µM (A549 cells; Homo sapiens, A549, read-out: Percent inhibition of Alamar Blue Metabolism, vinblastine 0.0008 μM alone) was 41.5%, the inhibition at 0.0016 µM (A549 cells; Homo sapiens, A549, read-out: Percent inhibition of Alamar Blue Metabolism, vinblastine 0.0016 μM alone) was 48.4% and the inhibition at 0.0031 µM (A549 cells; Homo sapiens, A549, read-out: Percent inhibition of Alamar Blue Metabolism, vinblastine 0.0031 μM alone) was 61.1%. It also gave an inhibition at 0.0063 µM (A549 cells; Homo sapiens, A549, read-out: Percent inhibition of Alamar Blue Metabolism, vinblastine 0.0063 μM alone) of 67.2%, an inhibition at 0.0125 µM (A549 cells; Homo sapiens, A549, read-out: Percent inhibition of Alamar Blue Metabolism, vinblastine 0.0125 μM alone) of 77.2% and an inhibition at 0.025 µM (A549 cells; Homo sapiens, A549, read-out: Percent inhibition of Alamar Blue Metabolism, vinblastine 0.0250 μM alone) of 85.5%.
For `N=C(N)c1ccc(OCCCCCOc2ccc(C(=N)N)cc2)cc1` [Pentamidine isethionate, 4,4′-diamidino-diphenoxypentane di(β-hydroxyethanesulfonate)], the solubility ([1]; in ether, acetone, and chloroform) is listed as “insoluble” and the solubility ([1]; in water and glycerin) is listed as “soluble”.
In the case of `N.N.O=C([O-])C1(C(=O)[O-])CCC1.[Pt+2]` [Carboplatin, carboplatin], the “Percent inhibition of Alamar Blue Metabolism” value (shortened to “Percent inhibition”) (A549 cells; carboplatin 0.15 μM alone) is reported as 5.5%, the “Percent inhibition” value (A549 cells; carboplatin 0.30 μM alone) is reported as 14.5% and the “Percent inhibition” value (A549 cells; carboplatin 0.59 μM alone) is reported as 9.8%. For the same molecule, the “Percent inhibition” value (A549 cells; carboplatin 1.19 μM alone) was −19.0%, the “Percent inhibition” value (A549 cells; carboplatin 2.38 μM alone) was 13.9% and the “Percent inhibition” value (A549 cells; carboplatin 4.75 μM alone) was 16.4%. For the same molecule, the “Percent inhibition” value (A549 cells; carboplatin 9.50 μM alone) was 35.8%, the “Percent inhibition” value (A549 cells; carboplatin 19.00 μM alone) was 30.5% and the “Percent inhibition” value (A549 cells; carboplatin 38.00 μM alone) was 48.7%.
In the case of `Nc1ccn([C@@H]2O[C@H](CO)[C@@H](O)C2(F)F)c(=O)n1` [Gemcitabine, gemcitabine], the inhibition at 0.00016 µM (A549 cells; Homo sapiens, A549, read-out: Percent inhibition of Alamar Blue Metabolism, gemcitabine 0.00016 μM alone) is reported as 7.9%, the inhibition at 0.00033 µM (A549 cells; Homo sapiens, A549, read-out: Percent inhibition of Alamar Blue Metabolism, gemcitabine 0.00033 μM alone) is reported as 19.1% and the inhibition at 0.00066 µM (A549 cells; Homo sapiens, A549, read-out: Percent inhibition of Alamar Blue Metabolism, gemcitabine 0.00066 μM alone) is reported as 11.3%. It also gave an inhibition at 0.00131 µM (A549 cells; Homo sapiens, A549, read-out: Percent inhibition of Alamar Blue Metabolism, gemcitabine 0.00131 μM alone) of 12.3%, an inhibition at 0.00263 µM (A549 cells; Homo sapiens, A549, read-out: Percent inhibition of Alamar Blue Metabolism, gemcitabine 0.00263 μM alone) of 13.8% and an inhibition at 0.00525 µM (A549 cells; Homo sapiens, A549, read-out: Percent inhibition of Alamar Blue Metabolism, gemcitabine 0.00525 μM alone) of 61.8%. The inhibition at 0.0105 µM (A549 cells; Homo sapiens, A549, read-out: Percent inhibition of Alamar Blue Metabolism, gemcitabine 0.01050 μM alone) was 87.4%, the inhibition at 0.021 µM (A549 cells; Homo sapiens, A549, read-out: Percent inhibition of Alamar Blue Metabolism, gemcitabine 0.02100 μM alone) was 88.7% and the inhibition at 0.042 µM (A549 cells; Homo sapiens, A549, read-out: Percent inhibition of Alamar Blue Metabolism, gemcitabine 0.04200 μM alone) was 89.8%.
